Patent publication US20110105472A1, “Diaminopyrimidines as crop protection agents” (Bayer CropScience AG, priority 2008, published 2011)

Assay: logP by LC-MS, method [b], acidic range pH 2.7
Type: physicochemical
Conditions: not given

log p | Structure (SMILES)
1.73 | COC(=O)Nc1cccc(Nc2ncc(Cl)c(NC3CCC3)n2)c1 [Compound 139]

Same assay, conditions: method [b], LC-MS, acidic range pH 2.7

Structure (SMILES) | log p
CCS(=O)(=O)c1nc2ccc(Nc3ncc(Br)c(NC4CCC4)n3)cc2s1 [Compound 3] | 2.91[b]

Same assay, conditions: pH 2.7

log p | Structure (SMILES)
2.7[b] | CC(=O)N(c1ccc(Nc2ncc(Br)c(NC3CCC3)n2)cc1)C1CCCCC1 [compound 163]
2.3[b] | O=S(=O)(c1cccc(Nc2ncc(Cl)c(NC3CCC3)n2)c1)N1CCCCC1 [compound 130]
1.87[b] | Brc1cnc(Nc2ccc3c(c2)OCO3)nc1NC1CCC1 [Compound 19]
2.09[b] | CC(C)(CF)C(=O)Nc1cccc(Nc2ncc(Br)c(NC3CCC3)n2)c1 [Compound 166]
3.37[b] | FC(F)C(F)(F)Oc1cccc(Nc2ncc(Br)c(NC3CCC3)n2)c1 [compound 170]
1.62[b] | COC(=O)Nc1ccc(Nc2ncc(Br)c(NC3CCC3)n2)cc1 [Compound 46]
2.41[b] | COc1cc(Nc2ncc(Br)c(NC3CCC3)n2)ccc1F [Compound 31]
3.73[b] | FC(F)(F)Oc1ccc(Nc2ncc(Br)c(NC3CCC3)n2)cc1 [compound 183]
4.32[b] | CCCCC(=O)Oc1ccc(Nc2ncc(Br)c(NC3CCC3)n2)cc1 [compound 161]
2.5[b] | FC(F)Oc1ccc(Nc2ncc(Br)c(NC3CCC3)n2)cc1 [Compound 75]
1.73[b] | CC(=O)N(C)c1ccc(Nc2ncc(Br)c(NC3CCC3)n2)cc1 [Compound 94]
4.15[b] | FC(F)(F)Oc1cccc(Nc2ncc(Br)c(NC3CCC3)n2)c1 [compound 182]
3.36[b] | CC1(Nc2nc(Nc3ccccc3)ncc2C(F)(F)F)CCC1 [compound 232]
3.67[b] | CC(C)(C)c1cccc(Nc2ncc(Br)c(NC3CCC3)n2)c1 [Compound 254]
2.46[b] | O=C(Nc1cccc(Nc2ncc(Br)c(NC3CCC3)n2)c1)c1ccccc1 [compound 168]
1.57[b] | CN(C)C(=O)c1cccc(Nc2ncc(Cl)c(NC3CCC3)n2)c1 [Compound 247]
3.37[b] | CCSc1cccc(Nc2ncc(Br)c(NC3CCC3)n2)c1 [Compound 228]
1.5[b] | Oc1ccc(Nc2ncc(Br)c(NC3CCC3)n2)cc1F [Compound 184]
2[b] | CC1(C(=O)Nc2ccc(Nc3ncc(Br)c(NC4CCC4)n3)cc2)CC1 [compound 189]
1.94[b] | O=C(Nc1cccc(Nc2ncc(Br)c(NC3CCC3)n2)c1)c1ccco1 [Compound 167]
1.83[b] | CN1C(=O)COc2ccc(Nc3ncc(Br)c(NC4CCC4)n3)cc21 [Compound 13]
1.47[b] | Cc1cc(O)ccc1Nc1ncc(Br)c(NC2CCC2)n1 [compound 198]
2.26[b] | Brc1cnc(Nc2ccc(-c3cscn3)cc2)nc1NC1CCC1 [Compound 74]

log p | Structure (SMILES)
1.66[b] | O=C1CCCCN1c1cccc(Nc2ncc(Cl)c(NC3CCC3)n2)c1 [Compound 204]
2.12[b] | COc1cc(Nc2ncc(Br)c(NC3CCC3)n2)cc(OC)c1 [Compound 53]
1.87[b] | Cc1ccccc1Nc1ncc(Br)c(NC2CCC2)n1 [Compound 60]
2.28[b] | CC(=O)c1cccc(Nc2ncc(Br)c(NC3CCC3)n2)c1 [Compound 32]
2.46[b] | N#Cc1cccc(Nc2ncc(Cl)c(NC3CCC3)n2)c1 [compound 107]
2.73[b] | CCc1cc(Nc2ncc(Cl)c(NC3CCC3)n2)ccc1C [Compound 222]
1.83[b] | COC(=O)Nc1cccc(Nc2ncc(Br)c(NC3CCC3)n2)c1 [Compound 106]
1.71[b] | C=CC(=O)Nc1cccc(Nc2ncc(Br)c(NC3CCC3)n2)c1 [Compound 82]
3.59[b] | FC(F)(F)Oc1cccc(Nc2ncc(Cl)c(NC3CCC3)n2)c1 [compound 112]
1.68[b] | CC(=O)N1CCc2cc(Nc3ncc(Br)c(NC4CCC4)n3)ccc21 [Compound 17]
1.54[b] | CNC(=O)c1ccc(Nc2ncc(Br)c(NC3CCC3)n2)cc1 [Compound 101]
1.83[b] | CC(C)C(=O)Nc1ccc(Nc2ncc(Br)c(NC3CCC3)n2)cc1 [compound 169]
2.11[b] | COCC(C)Oc1ccc(Nc2ncc(Br)c(NC3CCC3)n2)cc1 (centres unmarked) [Compound 41]
3.9[b] | Fc1cc(C(F)(F)F)ccc1Nc1ncc(Br)c(NC2CCC2)n1 [Compound 63]
3.22[b] | CSc1ccc(Nc2ncc(Cl)c(NC3CCC3)n2)cc1Cl [compound 115]
2.8[b] | Brc1cnc(Nc2cccc(-c3nccs3)c2)nc1NC1CCC1 [Compound 33]
2.84[b] | COC(=O)c1ccc(Nc2ncc(Br)c(NC3CCC3)n2)cc1 [compound 158]
1.33[b] | O=C1Cc2cc(Nc3ncc(Cl)c(NC4CCC4)n3)ccc2N1 [compound 7]
1.9[b] | CCOC(=O)Nc1ccc(Nc2ncc(Br)c(NC3CCC3)n2)cc1 [Compound 195]
2.02[b] | NS(=O)(=O)c1cc(Nc2ncc(Br)c(NC3CCC3)n2)ccc1Cl [Compound 79]
1.94[b] | CCOC(=O)Nc1cccc(Nc2ncc(Cl)c(NC3CCC3)n2)c1 [Compound 137]
1.63[b] | CN1CC(=O)N(c2ccc(Nc3ncc(Br)c(NC4CCC4)n3)cc2)C1=O [Compound 164]
1.8[b] | CCOC(=O)Nc1ccc(Nc2ncc(Cl)c(NC3CCC3)n2)cc1 [compound 136]

log p | Structure (SMILES)
2.46[b] | O=S(=O)(c1cccc(Nc2ncc(Br)c(NC3CCC3)n2)c1)N1CCOCC1 [Compound 147]
2.39[b] | CCC(=O)c1cc(Nc2ncc(Br)c(NC3CCC3)n2)ccc1O [compound 194]
1.61[b] | O=c1[nH]c2cc(Nc3ncc(Br)c(NC4CCC4)n3)ccc2o1 [Compound 16]
2.16[b] | CC(C)(CCl)C(=O)Nc1ccc(Nc2ncc(Br)c(NC3CCC3)n2)cc1 [Compound 165]
3.07[b] | Cc1ccc(NS(=O)(=O)c2cc(Nc3ncc(Br)c(NC4CCC4)n3)ccc2C)cc1 [Compound 66]
2.65[b] | CC(=O)c1ccc(Nc2ncc(Br)c(NC3CCC3)n2)cc1 [compound 145]
1.94[b] | CC(C)(C)C(=O)Nc1ccc(Nc2ncc(Cl)c(NC3CCC3)n2)cc1 [Compound 116]
3.18[b] | Brc1ccc(Nc2ncc(Br)c(NC3CCC3)n2)cc1 [compound 67]
2.99[b] | Clc1ccc(Nc2ncc(Br)c(NC3CCC3)n2)cc1 [compound 69]
2.2[b] | COCc1cccc(Nc2ncc(Br)c(NC3CCC3)n2)c1 [Compound 39]
2.63[b] | O=c1oc2ccc(Nc3ncc(Br)c(NC4CCC4)n3)cc2s1 [compound 11]
2.11[b] | CC(C)(C)C(=O)Nc1cccc(Nc2ncc(Br)c(NC3CCC3)n2)c1 [Compound 99]
1.87[b] | CC1(C(=O)Nc2ccc(Nc3ncc(Cl)c(NC4CCC4)n3)cc2)CC1 [compound 122]
1.61[b] | O=C1COc2ccc(Nc3ncc(Br)c(NC4CCC4)n3)cc2N1 [Compound 6]
1.9[b] | CC(=O)N(c1ccc(Nc2ncc(Br)c(NC3CCC3)n2)cc1)C1CC1 [Compound 209]
1.62[b] | O=C1OCCN1c1ccc(Nc2ncc(Br)c(NC3CCC3)n2)cc1 [Compound 173]
3.59[b] | COC(=O)c1ccc(Nc2ncc(Br)c(NC3CCC3)n2)cc1Cl [Compound 78]
3.19[b] | CCC(=O)c1ccc(Nc2ncc(Br)c(NC3CCC3)n2)cc1 [Compound 172]
1.99[b] | C=CCNC(=O)c1ccc(Nc2ncc(Br)c(NC3CCC3)n2)cc1 [Compound 83]
2.09[b] | O=C(Nc1ccccc1)c1ccc(Nc2ncc(Br)c(NC3CCC3)n2)cc1 [Compound 72]
4.41[b] | O=C(c1ccc(Nc2ncc(Br)c(NC3CCC3)n2)cc1)C(F)(F)F [Compound 197]

Structure (SMILES) | log p
CC(=O)Cc1ccc(Nc2ncc(Cl)c(NC3CCC3)n2)cc1 [Compound 244] | 1.75[b]
CN(C)S(=O)(=O)c1cccc(Nc2ncc(Br)c(NC3CCC3)n2)c1 [Compound 157] | 2.53[b]
N#CCc1cccc(Nc2ncc(Br)c(NC3CCC3)n2)c1 [Compound 220] | 2.12[b]
CN1CCN(c2cccc(Nc3ncc(Cl)c(NC4CCC4)n3)c2)C1=O [Compound 237] | 1.66[b]
CC(C)c1cccc(Nc2ncc(Cl)c(NC3CCC3)n2)c1 [Compound 243] | 3.1[b]
O=C1COCCN1c1cccc(Nc2ncc(Br)c(NC3CCC3)n2)c1 [Compound 210] | 1.53[b]
CCc1nc2cc(Nc3ncc(Br)c(NC4CCC4)n3)ccc2o1 [Compound 21] | 2.06[b]
CCSc1cccc(Nc2ncc(Cl)c(NC3CCC3)n2)c1 [Compound 188] | 3.15[b]
N#CCc1cccc(Nc2ncc(Cl)c(NC3CCC3)n2)c1 [Compound 242] | 1.97[b]
CCN(CC)C(=O)c1cccc(Nc2ncc(Br)c(NC3CCC3)n2)c1 [Compound 252] | 2.26[b]
O=C1N(CCCl)CCN1c1cccc(Nc2ncc(Br)c(NC3CCC3)n2)c1 [Compound 206] | 2.19[b]
CC(=O)c1cc(Nc2ncc(Br)c(NC3CCC3)n2)ccc1Cl [Compound 150] | 2.95[b]
O=C(c1ccc(Nc2ncc(C(F)(F)F)c(NC3CCC3)n2)cc1)N1CCCCC1 [Compound 223] | 3.31[b]
Cc1cc(C)c(C)c(Nc2ncc(Br)c(NC3CCC3)n2)c1 [Compound 61] | 2.57[b]
O=CNc1cccc(Nc2ncc(Br)c(NC3CCC3)n2)c1 [Compound 154] | 1.58[b]
Brc1cnc(Nc2ccccc2)nc1NC1CCC1 [Compound 229] | 2.18[b]

Assay: logP by HPLC on reversed-phase columns (C 18), method [a], acidic range pH 2.3
Type: physicochemical
Conditions: pH 2.3

Structure (SMILES) | log p
CCCCNS(=O)(=O)c1ccc(Nc2ncc(Cl)c(NC3CCC3)n2)cc1 [compound 26] | 2.91[a]
O=C1CCCCN1c1cccc(Nc2ncc(Br)c(NC3CCC3)n2)c1 [Compound 217] | 1.77[a]
NS(=O)(=O)c1cc(Nc2ncc(Cl)c(NC3CCC3)n2)cc(C(F)(F)F)c1 [compound 24] | 2.7[a]
O=C1CCCCCN1c1cccc(Nc2ncc(Br)c(NC3CCC3)n2)c1 [Compound 215] | 2.08[a]
